In PMC4187893, “Biochemical and Antiparasitic Properties of Inhibitors of the Plasmodium falciparum Calcium-Dependent Protein Kinase PfCDPK1” (Antimicrobial Agents and Chemotherapy, 2014):
pEC50, pIC50: −log10 of the molar value. Like-named read-outs stand apart in the source and are kept apart here.

Columns and labels:
[1] = set-up: method as in PMID 24689770; details: cited from earlier work
[2] = P. berghei mouse model; cited from earlier work
P. falciparum 3D7 = experiment: FACS assay for parasite growth; details: read-out: Parasite growth inhibition EC50; FACS; mean (SD), n = 3
PvCDPK1 = PvCDPK1 (Plasmodium vivax, UniProt A5KBU9); experiment: Rh-ParM ADP sensor IC50 assay, PvCDPK1; details: read-out: IC50 PvCDPK1; Rh-ParM, absence of MTIP; mean (SD), n = 3
PbCDPK1 = PbCDPK1 (Plasmodium berghei, UniProt A0A509AHB6); experiment: Rh-ParM ADP sensor IC50 assay, PbCDPK1; details: read-out: IC50 PbCDPK1; Rh-ParM, absence of MTIP; mean (SD), n = 3
PfCDPK1 [3] = biological target: T1, PfCDPK1 (Plasmodium falciparum, UniProt P62344); experiment: Thermal shift assay; type: binding; set-up: 50 nM full-length recombinant PfCDPK1 and 8 μM MTIP in assay buffer 1; GST (from vector pGEX6P1) (N, cleaved yes); made in house; host or cells: Escherichia coli BL21 Gold; details: 10 μM compound, relative to DMSO controls
Description: Purified recombinant PfCDPK1 was diluted to 1 μM in 10 mM HEPES buffer (pH 7.5) containing 150 mM NaCl, 1 mM Ca^2+, and 1/1,000 SYPRO orange dye (Invitrogen). Test compounds were prediluted to 400 μM in 40% (vol/vol) DMSO in water, and 1 μl of diluted compound was added to 39 μl of enzyme/dye mix in white 96-well quantitative PCR plates (Thermo Scientific) to give a final compound concentration of 10 μM. Reference thermal melting temperatures (Tms) were obtained in parallel by the addition of 1 μl of 40% (vol/vol) DMSO to 39 μl of diluted PfCDPK1. The plates were sealed with transparent adhesive covers (Bio-Rad) and subjected to a temperature gradient from […] at a rate of 1 K/min using a quantitative PCR machine (MX3005P; Stratagene). Fluorescence data were acquired at 1-min intervals using the 6-carboxyfluorescein (FAM)/5-carboxy-X-rhodamine (ROX) filter set (λex = 492 nm; λem = 610 nm), and the raw data were exported to Excel (Microsoft) for analysis. Data were processed to identify the fluorescence maxima and minima, and the midpoints of melting curves were determined by fitting to the Boltzmann equation using XL-fit software (IDBS). Results were expressed as ΔTm values relative to DMSO controls where ΔTm = Tm in the presence of inhibitor − Tm of the DMSO controls.

PfCDPK1 [4] = biological target: T1, PfCDPK1; details: absence of MTIP; for IC50 ratio (IC50 with 1 mM ATP/IC50 with 30 μM ATP): Rh-ParM; for pIC50: Rh-ParM ADP detection, mean (SD), n = 2
PfCDPK1 [5] = biological target: T1, PfCDPK1; experiment: Kinase-Glo Plus ATP depletion assay; details: read-out: IC50 ATP depletion, ATP and MTIP at their respective Km values
PfCDPK1 [6] = biological target: T1, PfCDPK1; experiment: Radiometric assay, incorporation of 33P into MTIP; details: for IC50 ratio (ATP depletion/radiometric assay): Kinase-Glo Plus IC50 / radiometric IC50; for pIC50: read-out: IC50 Radiometric assay, ATP and MTIP at their respective Km values
[7] = read-out: IC50 With 30 μM ATP, 30 μM ATP
[8] = read-out: IC50 With 1 mM ATP, 1 mM ATP

T1 sequence (P62344 whole entry): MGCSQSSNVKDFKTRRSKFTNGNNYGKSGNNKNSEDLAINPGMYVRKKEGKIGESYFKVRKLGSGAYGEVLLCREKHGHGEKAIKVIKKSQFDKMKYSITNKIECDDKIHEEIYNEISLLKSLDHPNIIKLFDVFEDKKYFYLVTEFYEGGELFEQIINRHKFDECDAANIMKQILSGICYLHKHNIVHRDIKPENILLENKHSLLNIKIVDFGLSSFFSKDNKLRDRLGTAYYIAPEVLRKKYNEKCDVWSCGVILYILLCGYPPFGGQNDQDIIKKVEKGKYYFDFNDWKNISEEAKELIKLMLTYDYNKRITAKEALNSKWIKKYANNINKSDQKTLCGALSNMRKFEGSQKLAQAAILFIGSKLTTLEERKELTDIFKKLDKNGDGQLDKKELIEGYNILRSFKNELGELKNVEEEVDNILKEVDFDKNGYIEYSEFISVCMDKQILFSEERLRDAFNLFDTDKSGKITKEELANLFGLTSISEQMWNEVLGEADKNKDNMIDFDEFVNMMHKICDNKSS
Sequence of PvCDPK1 (A5KBU9 entry or part of it): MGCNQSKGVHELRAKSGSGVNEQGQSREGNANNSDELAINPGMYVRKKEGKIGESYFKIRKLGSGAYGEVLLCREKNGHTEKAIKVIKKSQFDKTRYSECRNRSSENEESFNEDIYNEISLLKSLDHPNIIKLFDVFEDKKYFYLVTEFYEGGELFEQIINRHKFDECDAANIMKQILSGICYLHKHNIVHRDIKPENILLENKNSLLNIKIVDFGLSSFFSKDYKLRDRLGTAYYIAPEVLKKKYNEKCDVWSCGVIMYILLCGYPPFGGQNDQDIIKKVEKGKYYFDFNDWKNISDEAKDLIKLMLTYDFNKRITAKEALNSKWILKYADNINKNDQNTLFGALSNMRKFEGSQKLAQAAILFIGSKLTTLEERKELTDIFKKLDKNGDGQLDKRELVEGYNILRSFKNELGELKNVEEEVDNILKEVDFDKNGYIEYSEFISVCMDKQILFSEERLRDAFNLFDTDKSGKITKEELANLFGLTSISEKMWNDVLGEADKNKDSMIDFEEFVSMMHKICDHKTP
Sequence of PbCDPK1 (A0A509AHB6 whole entry): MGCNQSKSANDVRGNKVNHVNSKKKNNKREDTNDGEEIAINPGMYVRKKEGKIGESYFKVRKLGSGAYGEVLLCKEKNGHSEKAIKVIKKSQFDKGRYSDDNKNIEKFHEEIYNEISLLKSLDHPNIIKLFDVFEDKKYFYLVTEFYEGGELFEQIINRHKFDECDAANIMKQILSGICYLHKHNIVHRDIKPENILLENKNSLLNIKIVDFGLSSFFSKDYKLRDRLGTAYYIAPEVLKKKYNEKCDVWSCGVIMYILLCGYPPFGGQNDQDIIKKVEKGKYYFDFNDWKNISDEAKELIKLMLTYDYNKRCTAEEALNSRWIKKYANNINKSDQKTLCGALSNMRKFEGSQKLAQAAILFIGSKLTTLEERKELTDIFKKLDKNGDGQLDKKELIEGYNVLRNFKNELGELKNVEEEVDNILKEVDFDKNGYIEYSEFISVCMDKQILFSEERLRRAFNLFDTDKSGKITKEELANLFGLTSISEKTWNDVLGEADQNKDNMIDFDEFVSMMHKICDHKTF

| IC50 ratio (IC50 with 1 mM ATP/IC50 with 30 μM ATP) (PfCDPK1 [4]) | pIC50 (PfCDPK1 [4]; [7]) | pIC50 (PfCDPK1 [4]; [8]) | Structure (SMILES) | further results |
| --- | --- | --- | --- | --- |
|  |  |  | NC1CCC(Nc2ccc3ncc(-c4cnc(Nc5ncccc5F)nc4)n3n2)CC1 (stereo not shown) [Compound 2] | mlogD [1]: 0.2; plasma exposure [2]: poor plasma exposure; pEC50 (P. falciparum 3D7): 7.89 |
|  |  |  | CN1CCC(Nc2ccc3ncc(-c4ccc(Nc5ncccc5F)cc4)n3n2)CC1 [Compound 3] | mlogD [1]: 3.2; pIC50 (PvCDPK1): > 8.00 |
|  |  |  | Fc1cccnc1Nc1ccc(-c2cnc3ccc(NC4CCC(N5CCCC5)CC4)nn23)cn1 (stereo not shown) [Compound 4] | mlogD [1]: 2.8; pIC50 (PbCDPK1): 7.37; pIC50 (PvCDPK1): > 8.00 |
|  |  |  | Fc1cccnc1Nc1ccc(-c2cnc3ccc(NC4CCC(N5CCCC5)CC4)nn23)cc1 (stereo not shown) [Compound 5] | mlogD [1]: 3.3 |
|  |  |  | CN1CCC(Nc2ccc3ncc(-c4ccc(Nc5ncc(Cl)cc5F)cc4)n3n2)CC1 [Compound 6] | mlogD [1]: 3.7; pIC50 (PbCDPK1): > 8.00; pIC50 (PvCDPK1): > 8.00; ΔTm PfCDPK1 (PfCDPK1 [3]): 22 K |
| 17 | 6.67 | 5.45 | N#Cc1cccc(-c2cnn3ccc(NCCc4cccnc4)nc23)c1 [Compound 13] |  |
| 39 | 7.11 | 5.53 | O=C(NCc1ccc(N2CCCC2)cc1)c1ccc(-n2cnc3cccnc32)cc1 [Compound 16] |  |
| 27 | 7.29 | 5.86 | O=C(NCc1cccc(N2CCCC2)c1)c1ccc(-n2cnc3cccnc32)cc1 [Compound 17] |  |
| 53 | 7.07 | 5.34 | CC(C)Oc1ccc(CNC(=O)c2ccc(-n3cnc4cccnc43)cc2)cc1 [Compound 18] |  |
| 336 | 7.14 | 4.62 | CN(C(=O)c1cc(COc2ccc(-n3cncn3)cc2)on1)C1CCCCC1 [Compound 19] |  |
| 44 | 6.14 | 4.50 | CN(C(=O)c1cc(COc2ccc(-n3ccnc3)cc2)on1)C1CCCCC1 [Compound 20] |  |
| 41 | 6.84 | 5.23 | Cc1c(C(=O)N(C)C2CCCCC2)noc1COc1ccc(-n2cncn2)cc1 [Compound 21] |  |

| Structure (SMILES) | IC50 ratio (IC50 with 1 mM ATP/IC50 with 30 μM ATP) (PfCDPK1 [4]) | pIC50 (PfCDPK1 [4]; [7]) | pIC50 (PfCDPK1 [4]; [8]) | further results |
| --- | --- | --- | --- | --- |
| CC(=O)Nc1cccc(-c2cnc3ccc(NCCc4ccccn4)nn23)c1 [Compound 10] | 27 | 7.19 | 5.77 | pIC50 (PfCDPK1 [5]): 7.19; IC50 ratio (ATP depletion/radiometric assay) (PfCDPK1 [6]): 2.7; pIC50 (PfCDPK1 [6]): 7.62 |
| CC(=O)Nc1cccc(-c2cnc3ccc(NCCc4cccnc4)nn23)c1 [Compound 11] | 28 | 7.31 | 5.86 | pIC50 (PfCDPK1 [5]): 7.19; IC50 ratio (ATP depletion/radiometric assay) (PfCDPK1 [6]): 3.0; pIC50 (PfCDPK1 [6]): 7.66 |
| COc1ccc2ncc(-c3ccc(C(=O)NCc4ccccc4)cc3)n2n1 [Compound 12] | 37 | 6.97 | 5.41 | pIC50 (PfCDPK1 [5]): 6.70; IC50 ratio (ATP depletion/radiometric assay) (PfCDPK1 [6]): 5.9; pIC50 (PfCDPK1 [6]): 7.47 |
| CC(=O)Nc1cccc(-c2cnn3ccc(NCCc4cccnc4)nc23)c1 [Compound 14] | 27 | 7.55 | 6.13 | pIC50 (PfCDPK1 [5]): 7.28; IC50 ratio (ATP depletion/radiometric assay) (PfCDPK1 [6]): 3.5; pIC50 (PfCDPK1 [6]): 7.82 |
| NC(=O)c1ccc(-c2cnn3ccc(NCCc4cccnc4)nc23)cc1 [Compound 15] | 12 | 7.64 | 6.57 | pIC50 (PfCDPK1 [5]): 7.49; IC50 ratio (ATP depletion/radiometric assay) (PfCDPK1 [6]): 2.7; pIC50 (PfCDPK1 [6]): 7.92 |
